Assay results published in patent US8729082B2, “Substituted imidazoquinoxalines” (Bayer Intellectual Property GmbH, priority 2009, dated 2014).

Biological target: T1, human kinase Mps-1 (Homo sapiens, UniProt P33981)
T1 construct: N-terminally GST-tagged human full length recombinant Mps-1 kinase; purchased Invitrogen, Karslruhe, Germany PV4071
T1 sequence (P33981 1-857): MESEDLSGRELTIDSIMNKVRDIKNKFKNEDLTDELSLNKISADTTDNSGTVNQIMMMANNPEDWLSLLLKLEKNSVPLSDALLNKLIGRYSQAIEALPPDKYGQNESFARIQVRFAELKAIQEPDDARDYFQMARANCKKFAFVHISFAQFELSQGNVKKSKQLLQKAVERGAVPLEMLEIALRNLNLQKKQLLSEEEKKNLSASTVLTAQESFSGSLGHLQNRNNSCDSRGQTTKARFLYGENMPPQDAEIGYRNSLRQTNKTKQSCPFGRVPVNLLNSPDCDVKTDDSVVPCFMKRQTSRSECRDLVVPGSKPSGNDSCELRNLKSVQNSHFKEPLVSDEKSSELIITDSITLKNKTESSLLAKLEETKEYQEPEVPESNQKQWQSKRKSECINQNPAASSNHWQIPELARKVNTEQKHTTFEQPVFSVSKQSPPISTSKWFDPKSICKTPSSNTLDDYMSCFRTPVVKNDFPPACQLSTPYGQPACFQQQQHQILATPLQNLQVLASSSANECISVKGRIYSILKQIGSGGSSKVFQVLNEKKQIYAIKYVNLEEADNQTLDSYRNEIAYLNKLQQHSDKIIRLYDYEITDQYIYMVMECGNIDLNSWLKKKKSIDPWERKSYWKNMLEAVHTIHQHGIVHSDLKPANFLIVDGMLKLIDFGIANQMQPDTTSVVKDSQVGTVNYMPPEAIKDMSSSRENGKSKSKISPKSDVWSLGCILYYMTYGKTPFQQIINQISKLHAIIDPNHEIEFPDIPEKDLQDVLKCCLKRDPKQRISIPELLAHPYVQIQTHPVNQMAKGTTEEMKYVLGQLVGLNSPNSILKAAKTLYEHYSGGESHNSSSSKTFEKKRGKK
Assay: Mps-1 kinase assay (HTRF)
Format: biochemical
Conditions: lowATP; mean; read-out: Mps1 lowATP mean IC50
Method: The human kinase Mps-1 phosphorylates a biotinylated substrate peptide. Detection of the phosphorylated product is achieved by homogenous time-resolved fluorescence resonance energy transfer (HTRF) from Europium-labelled anti-phospho-Serine/Threonine antibody as donor to streptavidin labelled with cross-linked allophycocyanin (SA-XLent) as acceptor. Compounds are tested for their inhibition of the kinase activity.
N-terminally GST-tagged human full length recombinant Mps-1 kinase (purchased from Invitrogen, Karslruhe, Germany, cat. no PV4071) was used. As substrate for the kinase reaction a biotinylated peptide of the amino-acid sequence PWDPDDADITEILG (C-terminus in amide form, purchased from Biosynthan GmbH, Berlin) was used.
For the assay 50 nl of a 100-fold concentrated solution of the test compound in DMSO was pipetted into a black low volume 384 well microtiter plate (Greiner Bio-One, Frickenhausen, Germany), 2 μl of a solution of Mps-1 in assay buffer [0.1 mM sodium-ortho-vanadate, 10 mM MgCl2, 2 mM DTT, 25 mM Hepes pH 7.7, 0.05% BSA, 0.001% Pluronic F-127] were added and the mixture was incubated for 15 min at 22° C. to allow pre-binding of the test compounds to Mps-1 before the start of the kinase reaction. Then the kinase reaction was started by the addition of 3 μl of a solution of 16.7 μM ATP and 1.67 μM peptide in assay buffer and the resulting mixture was incubated for a reaction time of 60 min at 22° C. The concentration of Mps-1 in the assay was adjusted to the activity of the enzyme lot and was chosen appropriate to have the assay in the linear range, typical enzyme concentrations were in the range of about 1 nM (final conc. in the 5 μl assay volume). The reaction was stopped by the addition of 3 μl of a solution of HTRF detection reagents (100 mM Hepes pH 7.4, 0.1% BSA, 40 mM EDTA, 140 nM Streptavidin-XLent [#61GSTXLB, Fa. Cis Biointernational, Marcoule, France], 1.5 nM anti-phospho(Ser/Thr)-Europium-antibody [#AD0180, PerkinElmer LAS, Rodgau-Jügesheim, Germany].
The resulting mixture was incubated 1 h at 22° C. to allow the binding of the phosphorylated peptide to the anti-phospho(Ser/Thr)-Europium-antibody. Subsequently the amount of phosphorylated substrate was evaluated by measurement of the resonance energy transfer from the Europium-labelled anti-phospho(Ser/Thr) antibody to the Streptavidin-XLent. Therefore, the fluorescence emissions at 620 nm and 665 nm after excitation at 350 nm was measured in a HTRF reader, e.g. a Rubystar (BMG Labtechnologies, Offenburg, Germany) or a Viewlux (PerkinElmer LAS, Rodgau-Jügesheim, Germany). The ratio of the emissions at 665 nm and at […] was taken as the measure for the amount of phosphorylated substrate. The data were normalised (enzyme reaction without inhibitor=0% inhibition, all other assay components but no enzyme=100% inhibition).

| SMILES | IC50 [nM] |
| --- | --- |
| CSc1ccc(-c2cnc3c(NCC(C)C)nc4ccccc4n23)cc1 [Example 1-10, N-(2-methylpropyl)-1-[4-(methylsulfanyl)phenyl]imidazo[1,2-a]quinoxalin-4-amine] | 3340 |
| COCCCNc1nc2cc(C)c(C)cc2n2c(-c3ccc(C(=O)NC4CC4)cc3)cnc12 [Example 2-155, N-cyclopropyl-4-{4-[(3-methoxypropyl)amino]-7,8-dimethylimidazo[1,2-a]quinoxalin-1-yl}benzamide] | 7.71 |
| CNC(=O)Nc1ccc(-c2cnc3c(NCCCn4ccnc4)nc4cc(C)c(C)cc4n23)cc1 [Example 2-169, 1-[4-(4-{[3-(1H-imidazol-1-yl)propyl]amino}-7,8-dimethylimidazo[1,2-a]quinoxalin-1-yl)phenyl]-3-methylurea] | 274 |
| CC(C)CNc1nc2ccccc2n2c(-c3cc(F)ccc3F)cnc12 [Example 1-41, 1-(2,5-difluorophenyl)-N-(2-methylpropyl)imidazo[1,2-a]quinoxalin-4-amine] | 10600 |
| CNC(=O)Nc1ccc(-c2cnc3c(NCCCOC)nc4ccc(F)cc4n23)cc1 [Example 2-71, 1-(4-{8-fluoro-4-[(3-methoxypropyl)amino]imidazo[1,2-a]quinoxalin-1-yl}phenyl)-3-methylurea] | 4950 |
| CNC(=O)Nc1ccc(-c2cnc3c(NCc4cccnc4)nc4cc(F)c(F)cc4n23)cc1 [Example 2-122, 1-(4-{7,8-difluoro-4-[(pyridin-3-ylmethyl)amino]imidazo[1,2-a]quinoxalin-1-yl}phenyl)-3-methylurea] | 4080 |
| Cc1cc2nc(NCCC(C)C)c3ncc(-c4ccc(C(=O)NC5CC5)c(Cl)c4)n3c2cc1C [Example 2-181, 2-chloro-N-cyclopropyl-4-{7,8-dimethyl-4-[(3-methylbutyl)amino]imidazo[1,2-a]quinoxalin-1-yl}benzamide] | 71.8 |
| NS(=O)(=O)CCNc1nc2cc(F)c(F)cc2n2c(-c3ccc(C(=O)NC4CC4)c(Cl)c3)cnc12 [Example 2-143, 2-chloro-N-cyclopropyl-4-{7,8-difluoro-4-[(2-sulfamoylethyl)amino]imidazo[1,2-a]quinoxalin-1-yl}benzamide] | 1240 |
| Cn1cc(CNc2nc3cc(F)c(F)cc3n3c(-c4ccc(C(=O)NC5CC5)cc4)cnc23)cn1 [Example 2-111, N-cyclopropyl-4-(7,8-difluoro-4-{[(1-methyl-1H-pyrazol-4-yl)methyl]amino}imidazo[1,2-a]quinoxalin-1-yl)benzamide] | 79.6 |
| CC(C)CNc1nc2ccccc2n2c(-c3ccccc3C(F)(F)F)cnc12 [Example 1-23, N-(2-methylpropyl)-1-[2-(trifluoromethyl)phenyl]imidazo[1,2-a]quinoxalin-4-amine] | 7710 |
| CC(C)CNc1nc2ccccc2n2c(-c3cccnc3F)cnc12 [Example 1-14, 1-(2-fluoropyridin-3-yl)-N-(2-methylpropyl)imidazo[1,2-a]quinoxalin-4-amine] | 9730 |

Further compounds by falling IC50, results first:

| IC50 [nM] | SMILES |
| --- | --- |
| 8860 | CC(C)CNc1nc2ccccc2n2c(-c3ccc4[nH]ccc4c3)cnc12 [Example 1-39, 1-(1H-indol-5-yl)-N-(2-methylpropyl)imidazo[1,2-a]quinoxalin-4-amine] |
| 7720 | CC(C)CNc1nc2ccccc2n2c(-c3ccc(C(=O)NCCC(N)=O)cc3)cnc12 [Example 3-17, N-(3-amino-3-oxopropyl)-4-{4-[(2-methylpropyl)amino]imidazo[1,2-a]quinoxalin-1-yl}benzamide] |
| 6700 | O=C(NC1CC1)c1ccc(-c2cnc3c(NCc4ccccn4)nc4cc(F)c(F)cc4n23)cc1Cl [Example 2-134, 2-chloro-N-cyclopropyl-4-{7,8-difluoro-4-[(pyridin-2-ylmethyl)amino]imidazo[1,2-a]quinoxalin-1-yl}benzamide] |
| 5860 | CNC(=O)Nc1ccc(-c2cnc3c(NCC4CC4)nc4cc(F)c(F)cc4n23)cc1 [Example 2-120, 1-(4-{4-[(cyclopropylmethyl)amino]-7,8-difluoroimidazo[1,2-a]quinoxalin-1-yl}phenyl)-3-methylurea] |
| 1420 | O=C(NC1CC1)c1ccc(-c2cnc3c(NCc4cccnc4)nc4ccc(F)cc4n23)cc1Cl [Example 2-81, 2-chloro-N-cyclopropyl-4-{8-fluoro-4-[(pyridin-3-ylmethyl)amino]imidazo[1,2-a]quinoxalin-1-yl}benzamide] |
| 616 | CNC(=O)Nc1ccc(-c2cnc3c(NCc4cnn(C)c4)nc4cc(C)c(C)cc4n23)cc1 [Example 2-176, 1-[4-(7,8-dimethyl-4-{[(1-methyl-1H-pyrazol-4-yl)methyl]amino}imidazo[1,2-a]quinoxalin-1-yl)phenyl]-3-methylurea] |
| 414 | CNC(=O)Nc1ccc(-c2cnc3c(NCc4ccc(F)cc4)nc4cc(C)c(C)cc4n23)cc1 [Example 2-164, 1-(4-{4-[(4-fluorobenzyl)amino]-7,8-dimethylimidazo[1,2-a]quinoxalin-1-yl}phenyl)-3-methylurea] |
| 218 | Cc1cc2nc(NCCC(N)=O)c3ncc(-c4ccc(C(=O)NC5CC5)c(Cl)c4)n3c2cc1C [Example 2-195, 4-{4-[(3-amino-3-oxopropyl)amino]-7,8-dimethylimidazo[1,2-a]quinoxalin-1-yl}-2-chloro-N-cyclopropylbenzamide] |
| 177 | COCCCNc1nc2ccc(F)cc2n2c(-c3ccc(C(=O)NC4CC4)cc3)cnc12 [Example 2-57, N-cyclopropyl-4-{8-fluoro-4-[(3-methoxypropyl)amino]imidazo[1,2-a]quinoxalin-1-yl}benzamide] |
| 140 | COCCCNc1nc2cc(C)c(C)cc2n2c(-c3ccc(C(=O)NC4CC4)c(Cl)c3)cnc12 [Example 2-196, 2-chloro-N-cyclopropyl-4-{4-[(3-methoxypropyl)amino]-7,8-dimethylimidazo[1,2-a]quinoxalin-1-yl}benzamide] |
| 99.6 | O=C(NC1CC1)c1ccc(-c2cnc3c(NCc4cccnc4)nc4ccccc4n23)cc1 [Example 2-26, N-cyclopropyl-4-{4-[(pyridin-3-ylmethyl)amino]imidazo[1,2-a]quinoxalin-1-yl}benzamide] |
| 62.2 | O=C(NC1CC1)c1ccc(-c2cnc3c(NCc4cccs4)nc4cc(F)c(F)cc4n23)cc1 [Example 2-98, N-cyclopropyl-4-{7,8-difluoro-4-[(thiophen-2-ylmethyl)amino]imidazo[1,2-a]quinoxalin-1-yl}benzamide] |
| 59.6 | Cn1ccc(CNc2nc3cc(C#N)ccc3n3c(-c4ccc(C(=O)NC5CC5)cc4)cnc23)n1 [Example 2-219, 4-(7-cyano-4-{[(1-methyl-1H-pyrazol-3-yl)methyl]amino}imidazo[1,2-a]quinoxalin-1-yl)-N-cyclopropylbenzamide] |
| 4.15 | CCCNc1nc2cc(C)c(C)cc2n2c(-c3ccc(C(=O)NC4CC4)cc3)cnc12 [Example 2-144, N-cyclopropyl-4-[7,8-dimethyl-4-(propylamino)imidazo[1,2-a]quinoxalin-1-yl]benzamide] |
